Test results as given in ChEMBL document CHEMBL3832026.
“And” between values parts separate entries of the source, which are not always exact repeats. Identical values can stand only once.

Assays:
Assay type in all cases: ADME, organism-based
[1] = (§1) Pharmacokinetic parameters of Mycophenolic acid following administration of 360 to 2160 mg Mycophenolic acid delayed-release tablets to renal transplant patients on Cyclosporine, USP MODIFIED based immunosuppression.; conditions: human, in vivo, po
[2] = test system: Homo sapiens; assay: as §1; conditions: in vivo, po
[3] = (§2) Mean pharmacokinetic parameters of Mycophenolic acid following multiple dose administration of 720 mg Mycophenolic acid delayed-release tablets to adult renal transplant patients on Cyclosporine, USP MODIFIED based immunosuppression; design: dose 720 mg, route oral; conditions: human, in vivo, po, 720 mg
[4] = test system: Homo sapiens; assay: as §2; design: dose 720 mg, route oral; conditions: in vivo, po
[5] = (§3) Mean pharmacokinetic parameters of Mycophenolic acid following single oral administration of Mycophenolic acid delayed-release tablets to adult or pediatric (age range 5 to 16 years) renal transplant patients on Cyclosporine, USP MODIFIED based immunosuppression; design: dose 450 mg/m-2, dose 1 g, dose 720 mg, route oral; conditions: human, in vivo
[6] = test system: Homo sapiens; assay: as §3; design: dose 450 mg/m-2, dose 1 g, dose 720 mg, route oral; conditions: in vivo

COc1c(C)c2c(c(O)c1C/C=C(\C)CCC(=O)O)C(=O)OC2 [MYCOPHENOLIC ACID]
CL/F [1]: 140 mL/min | Vd [2]: 112 L | Vss [2]: 54 L | Tmax [3]: 2 h | AUC(0-12) [4]: 57.4 mcg.hr/mL [middle of 6 runs] | Cmax [4]: 26.2 mcg/mL [middle of 5 runs] | Tmax [4]: 1.5 h and 2.5 h and 1.8 h | Cmax [5]: 36300 ng/mL | Tmax [5]: 2.5 h | AUC ([5]; dosed compound id 90, dosed compound name MYCOPHENOLATE MOFETIL, regimen Single dose, tissue Plasma, read-out: AUC(0-48)): 42700 ng·h/mL | AUC ([5]; read-out: AUC(0 to inf)): 74300 ng·h/mL | AUC(0 to inf) [6]: 66500 ng·h/mL | Cmax [6]: 26100 ng/mL | Tmax [6]: 2 h | AUC(0-48) ([6]; dosed compound id 90, dosed compound name MYCOPHENOLATE MOFETIL, regimen Single dose, tissue Plasma): 48300 ng·h/mL
